What follows are compounds tested against T1, recombinant full-length USP7 (Homo sapiens, UniProt Q93009) (assay: USP7-mediated ubiquitin-rhodamine cleavage assay). Conditions: recombinant full-length USP7 62 pM; ubiquitin-rhodamine 100 nM; 30-minute incubation with compound, 1 hour reaction at room temperature; read-out: Potency: USP7 IC50.
T1 construct: A 25 μl reaction volume containing recombinant full-length USP7 (62 pM)
Format: biochemical
In short: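 After compound and enzyme (62 pM) sat together 30 min at RT, 100 nM fluorogenic ubiquitin-rhodamine substrate was added for 1 h protected from light. Acetic acid quenched the reaction prior to the fluorescence read.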

T1 sequence (Q93009 whole entry): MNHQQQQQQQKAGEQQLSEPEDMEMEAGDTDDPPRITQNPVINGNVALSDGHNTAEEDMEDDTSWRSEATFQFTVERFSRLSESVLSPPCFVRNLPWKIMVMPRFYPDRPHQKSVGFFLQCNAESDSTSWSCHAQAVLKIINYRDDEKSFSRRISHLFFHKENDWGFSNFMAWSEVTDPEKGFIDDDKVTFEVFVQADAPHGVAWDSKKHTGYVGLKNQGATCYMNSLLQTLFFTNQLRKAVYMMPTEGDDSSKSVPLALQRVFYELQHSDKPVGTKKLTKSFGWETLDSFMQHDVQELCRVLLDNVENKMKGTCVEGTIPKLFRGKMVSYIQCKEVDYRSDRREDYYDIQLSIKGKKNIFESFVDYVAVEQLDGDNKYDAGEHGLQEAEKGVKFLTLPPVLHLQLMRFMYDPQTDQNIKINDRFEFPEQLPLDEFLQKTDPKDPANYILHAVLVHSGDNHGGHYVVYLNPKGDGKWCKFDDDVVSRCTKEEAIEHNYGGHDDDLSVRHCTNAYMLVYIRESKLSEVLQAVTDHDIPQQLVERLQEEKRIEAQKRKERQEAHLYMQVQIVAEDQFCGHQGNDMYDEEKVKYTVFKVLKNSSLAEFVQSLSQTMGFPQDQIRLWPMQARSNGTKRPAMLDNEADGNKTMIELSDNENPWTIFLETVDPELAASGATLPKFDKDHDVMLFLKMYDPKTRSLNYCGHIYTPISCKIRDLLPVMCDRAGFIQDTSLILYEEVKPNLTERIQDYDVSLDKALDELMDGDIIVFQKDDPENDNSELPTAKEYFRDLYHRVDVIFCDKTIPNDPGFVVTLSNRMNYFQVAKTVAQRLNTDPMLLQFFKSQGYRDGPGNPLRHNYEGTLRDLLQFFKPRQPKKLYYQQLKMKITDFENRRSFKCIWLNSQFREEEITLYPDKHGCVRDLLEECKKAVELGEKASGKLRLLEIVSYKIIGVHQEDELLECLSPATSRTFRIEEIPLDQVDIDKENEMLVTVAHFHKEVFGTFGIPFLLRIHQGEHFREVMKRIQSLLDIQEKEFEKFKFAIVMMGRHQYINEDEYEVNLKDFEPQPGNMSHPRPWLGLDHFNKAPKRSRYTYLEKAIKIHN

Row | SMILES | IC50 [nM]
1 | CCC(O)c1cc2nccc(-c3cc(Cl)cc(C)c3O[C@@H]3CNC[C@@H]3F)c2s1 (stereo partly drawn) [Example 82, 1-(7-(5-Chloro-2-(((3R,4S)-4-fluoropyrrolidin-3-yl)oxy)-3-methylphenyl)thieno[3,2-b]pyridin-2-yl)propan-1-ol] | 1000 to 10000
2 | Cc1cc(Cl)cc(-c2ccnc3cc(CN4C(=O)CCC4=O)sc23)c1O[C@@H]1CN(C2CCC2)C[C@@H]1F [Example 322, 1-[[7-[5-chloro-2-[(3R,4S)-1-cyclobutyl-4-fluoro-pyrrolidin-3-yl]oxy-3-methyl-phenyl]thieno[3,2-b]pyridin-2-yl]methyl]pyrrolidine-2,5-dione] | < 1000
3 | Cc1cc(Cl)cc(-c2ccnc3cc(CO)sc23)c1OC1C[C@@H]2C[C@H](C1)N2 (stereo partly drawn) [Example 190, (7-(2-(((1R,5S)-6-Azabicyclo[3.1.1]heptan-3-yl)oxy)-5-chloro-3-methylphenyl)thieno[3,2-b]pyridin-2-yl)methanol] | 10000 to 30000
4 | Cc1cc(Cl)cc(-c2ccnc3cc(CN4C(=O)C5CCCCC5C4=O)sc23)c1OC1CCNCC1 (stereo not drawn) [Example 217] | 1000 to 10000
5 | CC(=O)N[C@H]1CNC[C@H]1Oc1c(C)cc(Cl)cc1-c1ccnc2cc(CN3C(=O)CCC3=O)sc12 [Example 85, N-((3S,4R)-4-(4-Chloro-2-(2-((2,5-dioxopyrrolidin-1-yl)methyl)thieno[3,2-b]pyridin-7-yl)-6-methylphenoxy)pyrrolidin-3-yl)acetamide] | 1000 to 10000
6 | Cc1cc(Cl)cc(-c2ccnc3cc(CN4C(=O)C5CCCN5C4=O)sc23)c1O[C@@H]1CNC[C@@H]1F (stereo partly drawn) [Example 143, 2-((7-(5-Chloro-2-(((3R,4S)-4-fluoropyrrolidin-3-yl)oxy)-3-methylphenyl)thieno[3,2-b]pyridin-2-yl)methyl)tetrahydro-1H-pyrrolo[1,2-c] imidazole-1,3(2H)-dione] | < 1000
7 | Cc1cc(Cl)cc(-c2ccnc3cc(CN4C(=O)C5C(C4=O)C5(C)C)sc23)c1OC1CNCC1(C)C (stereo not drawn) [Example 369, 3-[[7-[5-chloro-2-(4,4-dimethylpyrrolidin-3-yl)oxy-3-methyl-phenyl]thieno[3.2-b]pyridin-2-yl]methyl]-6,6-dimethyl-3-azabicyclo[3.1.0]hexane-2,4-dione] | < 1000
8 | Cc1cc(Cl)cc(-c2ccnc3cc([C@H](C)N4C(=O)CCC4=O)sc23)c1O[C@@H]1CCNC[C@H]1F [Example 289, 1-[(1S)-1-[7-[5-chloro-2-[[(3R,4R)-3-fluoro-4-piperidyl]oxy]-3-methyl-phenyl]thieno[3,2-b]pyridin-2-yl]ethyl]pyrrolidine-2,5-dione; 2,2,2-trifluoroacetic acid] | < 1000
9 | Cc1cc(Cl)cc(-c2ccnc3cc(Cn4c(=O)ccn(CC(F)F)c4=O)sc23)c1O[C@H]1CCCNC1 [Example 284, 3-[[7-[5-chloro-3-methyl-2-[[(3S)-3-piperidyl]oxy]phenyl]thieno[3,2-b]pyridin-2-yl]methyl]-1-(2,2-difluoroethyl)pyrimidine-2,4-dione; 2,2,2-trifluoroacetic acid] | < 1000
10 | Cc1cc(Cl)cc(-c2ccnc3cc(CN4C(=O)C5CCCCC5C4=O)sc23)c1O[C@@H]1CNC[C@@H]1F (stereo partly drawn) [Example 142, 2-((7-(5-Chloro-2-(((3R,4S)-4-fluoropyrrolidin-3-yl)oxy)-3-methylphenyl)thieno[3,2-b]pyridin-2-yl)methyl)hexahydro-1H-isoindole-1,3(2H)-dione] | < 1000
11 | OCc1cc2nccc(-c3cc(Cl)cc(Br)c3OCC3CNC3)c2s1 [Example 21, (7-(2-(Azetidin-3-ylmethoxy)-3-bromo-5-chlorophenyl)thieno[3,2-b]pyridin-2-yl)methanol] | 1000 to 10000
12 | Cc1cc(C#N)cc(-c2ccnc3cc(CN4C(=O)CCC4=O)sc23)c1OCC1(C#N)CNC1 [Example 27, 3-((4-Cyano-2-(2-((2,5-dioxopyrrolidin-1-yl)methyl)thieno[3,2-b]pyridin-7-yl)-6-methylphenoxy)methyl)azetidine-3-carbonitrile] | < 1000
13 | Cc1cc(Cl)cc(-c2ccnc3cc(Cn4c(=O)ccn(CC(F)(F)F)c4=O)sc23)c1O[C@@H]1CCN(C)C[C@@H]1C [Example 273, 3-((7-(5-Chloro-2-(((3S,4R)-1,3-dimethylpiperidin-4-yl)oxy)-3-methylphenyl)thieno[3,2-b]pyridin-2-yl)methyl)-1-(2,2,2-trifluoroethyl)pyrimidine-2,4(1H,3H)-dione] | < 1000
14 | Cc1cc(Cl)cc(-c2ccnc3cc(CN4C(=O)CCC4=O)sc23)c1O[C@H]1C[C@@H]2CN[C@H]1C2 [Example 221, 1-((7-(2-(((1S,4R,6S)-2-azabicyclo[2.2.1]heptan-6-yl)oxy)-5-chloro-3-methylphenyl)thieno[3,2-b]pyridin-2-yl)methyl)pyrrolidine-2,5-dione] | < 1000
15 | Cc1cc(Cl)cc(-c2ccnc3cc(CO)sc23)c1OC1CCCNC1=O (stereo not drawn) [Example 200, 3-(4-Chloro-2-(2-(hydroxymethyl)thieno[3,2-b]pyridin-7-yl)-6-methylphenoxy)piperidin-2-one] | > 30000

Same assay, conditions: recombinant full-length USP7 62 pM; ubiquitin-rhodamine 100 nM; 30-minute incubation, 1 hour reaction at room temperature; read-out: Potency (USP7 IC50)

Row | SMILES | IC50 [nM]
16 | Cc1cc(Cl)cc(-c2ccnc3cc(Cn4c(=O)ccn(CC(F)(F)F)c4=O)sc23)c1OC1CCC(O)CC1 (stereo not drawn) [Example 677, 3-[[7-[5-chloro-2-(4-hydroxycyclohexoxy)-3-methyl-phenyl]thieno[3,2-b]pyridin-2-yl]methyl]-1-(2,2,2-trifluoroethyl)pyrimidine-2,4-dione] | < 1000
17 | Cc1cc(Cl)cc(-c2ccnc3cc(Cn4c(=O)ccn(CC(F)(F)F)c4=O)sc23)c1OC1CC(N2[C@@H]3CC[C@H]2COC3)C1 (stereo partly drawn) [Example 676, 3-[[7-[5-chloro-3-methyl-2-[3-[(1R,5S)-3-oxa-8-azabicyclo[3.2.1]octan-8-yl]cyclobutoxy]phenyl]thieno[3,2-b]pyridin-2-yl]methyl]-1-(2,2,2-trifluoroethyl)pyrimidine-2,4-dione] | < 1000

Same assay, conditions: recombinant full-length USP7 62 pM; ubiquitin-rhodamine 100 nM; 30-minute pre-incubation, 1 hour reaction at room temperature; read-out: Potency (USP7 IC50)

Row | SMILES | IC50 [nM]
18 | Cc1cc(Cl)cc(-c2ccnc3cc(CN4C(=O)CN(CC(F)(F)F)C4=O)sc23)c1OC1CCNCC1 [Example 649, 3-[[7-[5-chloro-3-methyl-2-(4-piperidyloxy)phenyl]thieno[3,2-b]pyridin-2-yl]methyl]-1-(2,2,2-trifluoroethyl)imidazolidine-2,4-dione; 2,2,2-trifluoroacetic acid] | < 1000
19 | Cc1cc(Cl)cc(-c2ccnc3cc(Cn4c(=O)ccn(CC(F)(F)F)c4=O)sc23)c1OC1(C)CC(N)C1 (stereo not drawn) [Example 640, 3-[[7-[2-(3-amino-1-methyl-cyclobutoxy)-5-chloro-3-methyl-phenyl]thieno[3,2-b]pyridin-2-yl]methyl]-1-(2,2,2-trifluoroethyl)pyrimidine-2,4-dione] | < 1000
20 | Cc1cc(Cl)cc(-c2ccnc3cc(Cn4c(=O)ccn(CC(F)(F)F)c4=O)sc23)c1O[C@H]1CC[C@](C)(N)C1 [Example 597, 3-[[7-[2-[(1S,3S)-3-amino-3-methyl-cyclopentoxy]-5-chloro-3-methyl-phenyl]thieno[3,2-b]pyridin-2-yl]methyl]-1-(2,2,2-trifluoroethyl)pyrimidine-2,4-dione; 2,2,2-trifluoroacetic acid] | < 1000
21 | Cc1cc(Cl)cc(-c2ccnc3cc(Cn4c(=O)ccn(C)c4=O)sc23)c1O[C@@H]1CN[C@@H](C(=O)O)C1 [Example 599, (2R,4S)-4-[4-chloro-2-methyl-6-[2-[(3-methyl-2,6-dioxo-pyrimidin-1-yl)methyl]thieno[3,2-b]pyridin-7-yl]phenoxy]pyrrolidine-2-carboxylic acid] | < 1000
22 | Cc1cc(Cl)cc(-c2ccnc3cc(Cn4c(=O)ccn(CC(F)(F)F)c4=O)sc23)c1O[C@@H]1CNC[C@H](F)C1 [Example 623, 3-[[7-[5-chloro-2-[[(3S,5R)-5-fluoro-3-piperidyl]oxy]-3-methyl-phenyl]thieno[3,2-b]pyridin-2-yl]methyl]-1-(2,2,2-trifluoroethyl)pyrimidine-2,4-dione; 2,2,2-trifluoroacetic acid] | < 1000
23 | Cc1cc(C(F)F)cc(-c2ccnc3cc(Cn4c(=O)ccn(C)c4=O)sc23)c1O[C@H]1CCCNC1 [Example 499, 3-[[7-[5-(difluoromethyl)-3-methyl-2-[[(3S)-3-piperidyl]oxy]phenyl]thieno[3,2-b]pyridin-2-yl]methyl]-1-methyl-pyrimidine-2,4-dione] | < 1000
24 | Cc1cc(Cl)cc(-c2ncnc3cc(Cn4c(=O)ccn(CC(F)(F)F)c4=O)sc23)c1O[C@@H]1CNC[C@@H]1F [Example 525, 3-[[4-[5-chloro-2-[(3R,4S)-4-fluoropyrrolidin-3-yl]oxy-3-methyl-phenyl]thieno[3,2-d]pyrimidin-6-yl]methyl]-1-(2,2,2-trifluoroethyl)pyrimidine-2,4-dione] | < 1000
25 | Cc1cc(C(F)(F)F)cc(-c2ccnc3cc(Cn4c(=O)c(F)cn(C)c4=O)sc23)c1O[C@H]1CCCNC1 [Example 460, 5-fluoro-1-methyl-3-[[7-[3-methyl-2-[[(3S)-3-piperidyl]oxy]-5-(trifluoromethyl)phenyl]thieno[3,2-b]pyridin-2-yl]methyl]pyrimidine-2,4-dione] | < 1000
26 | Cc1cc(Cl)cc(-c2ccnc3cc(Cn4c(=O)ccn(C)c4=O)sc23)c1O[C@@H]1CCNC[C@]1(C)F [Example 544, 3-[[7-[5-chloro-2-[[(3S,4R)-3-fluoro-3-methyl-4-piperidyl]oxy]-3-methyl-phenyl]thieno[3,2-b]pyridin-2-yl]methyl]-1-methyl-pyrimidine-2,4-dione; 2,2,2-trifluoroacetic acid] | < 1000
27 | Cc1cc(Cl)cc(-c2ccnc3cc(Cn4c(=O)ccn(C)c4=O)sc23)c1OC(C)CN (stereo not drawn) [Example 553, 3-[[7-[2-(2-amino-1-methyl-ethoxy)-5-chloro-3-methyl-phenyl]thieno[3,2-b]pyridin-2-yl]methyl]-1-methyl-pyrimidine-2,4-dione; 2,2,2-trifluoroacetic acid] | < 1000

Reference: patent US10722514B2 (FLX Bio, Inc., priority 2017, dated 2020)
